The molecules below were run on antibody of the present invention (assay: Interference from other drugs, homogeneous enzyme immunoassay). Details: chemical at 10.0 μg/ml urine; cutoff 5.0 μg Atenolol per ml of urine; tested three times.
Format: binding, rabbit
Protocol: Samples were checked for turbidity and growth. A homogeneous enzyme immunoassay was carried out on an Olympus AU-5200 analyzer using the following assay parameters:
Reagent 1 is comprised of a titer of 1–500 dilution of an antibody of the present invention, 11.25 mM NAD+, 11.25 mM G6P, 0.1% w/v sodium azide and 100 mM Tris.
Reagent 2 is comprised of a titer of 1–2000 dilution of a G6PDH-beta blocker conjugate, 0.1% w/v sodium azide, and 50 mM Tris.
A homogenous calibrator containing sodium azide was used to calibrate the analyzer prior to each run.
The analytical cutoff for the test was set at 5.0 μg Atenolol per ml of urine. The result was scored as a positive if the signal strength was greater than that produced by 5.0 μg Atenolol per ml of urine.
Interference from other drugs was tested using fifty-five (55) frequently used chemicals and medicines, at concentrations of 10.0 μg/ml urine.
The samples were tested three times, following the procedures used in Example 3.
For `CCC(=O)C(CC(C)N(C)C)(c1ccccc1)c1ccccc1` (racemic) [Methadone (DL-)], the “Beta-Blocker Pos./Neg.” value was “Neg. (scored as a positive if the signal strength was greater than that produced by 5.0 μg Atenolol per ml of urine)”. With `CN1C(=O)CC[C@H]1c1cccnc1` [(−)-Cotinine] the “Beta-Blocker Pos./Neg.” value was “Neg. (scored as a positive if the signal strength was greater than that produced by 5.0 μg Atenolol per ml of urine)”. With `CC(=O)Oc1ccccc1C(=O)O` [Acetylsalicylic Acid] the “Beta-Blocker Pos./Neg.” value was “Neg. (scored as a positive if the signal strength was greater than that produced by 5.0 μg Atenolol per ml of urine)”. For `Cc1nnc2n1-c1ccc(Cl)cc1C(c1ccccc1)=NC2` [Alprazolam], the “Beta-Blocker Pos./Neg.” value was “Neg. (scored as a positive if the signal strength was greater than that produced by 5.0 μg Atenolol per ml of urine)”. `C[C@H](N)Cc1ccccc1` [Amphetamine (D-)] was tested, and the “Beta-Blocker Pos./Neg.” value was “Neg. (scored as a positive if the signal strength was greater than that produced by 5.0 μg Atenolol per ml of urine)”. `CC1(C)S[C@@H]2[C@H](NC(=O)[C@H](N)c3ccccc3)C(=O)N2[C@H]1C(=O)O` [Ampicillin] was tested, and the “Beta-Blocker Pos./Neg.” value was “Neg. (scored as a positive if the signal strength was greater than that produced by 5.0 μg Atenolol per ml of urine)”. For `CN1[C@H]2CC[C@@H]1[C@@H](C(=O)O)[C@@H](OC(=O)c1ccccc1)C2` [Benzoylecgonine], the “Beta-Blocker Pos./Neg.” value was “Neg. (scored as a positive if the signal strength was greater than that produced by 5.0 μg Atenolol per ml of urine)”. In the case of `C=CCC1(CC(C)C)C(=O)NC(=O)NC1=O` [Butalbital], the “Beta-Blocker Pos./Neg.” value is reported as “Neg. (scored as a positive if the signal strength was greater than that produced by 5.0 μg Atenolol per ml of urine)”. `Cn1c(=O)c2c(ncn2C)n(C)c1=O` [Caffeine] was tested, and the “Beta-Blocker Pos./Neg.” value was “Neg. (scored as a positive if the signal strength was greater than that produced by 5.0 μg Atenolol per ml of urine)”. `CN(C)CCCN1c2ccccc2Sc2ccc(Cl)cc21` [Chlorpromazine] was tested, and the “Beta-Blocker Pos./Neg.” value was “Neg. (scored as a positive if the signal strength was greater than that produced by 5.0 μg Atenolol per ml of urine)”. `O=C1CN=C(c2ccccc2Cl)c2cc([N+](=O)[O-])ccc2N1` [Clonazepam] was tested, and the “Beta-Blocker Pos./Neg.” value was “Neg. (scored as a positive if the signal strength was greater than that produced by 5.0 μg Atenolol per ml of urine)”. In the case of `O=C(O)C1N=C(c2ccccc2)c2cc(Cl)ccc2NC1=O` (stereo not drawn) [Clorazepate], the “Beta-Blocker Pos./Neg.” value is reported as “Neg. (scored as a positive if the signal strength was greater than that produced by 5.0 μg Atenolol per ml of urine)”. `CCOC(=O)[C@@H]1C2CCC(C[C@@H]1OC(=O)c1ccccc1)N2C` (stereo partly drawn) [Cocainethylene] was tested, and the “Beta-Blocker Pos./Neg.” value was “Neg. (scored as a positive if the signal strength was greater than that produced by 5.0 μg Atenolol per ml of urine)”. With `COc1ccc2c3c1O[C@H]1[C@@H](O)C=C[C@H]4[C@@H](C2)N(C)CC[C@@]341` [Codeine] the “Beta-Blocker Pos./Neg.” value was “Neg. (scored as a positive if the signal strength was greater than that produced by 5.0 μg Atenolol per ml of urine)”. `COc1ccc2c(c1)[C@]13CCCC[C@@H]1[C@H](C2)N(C)CC3` [Dextromethorphan] was tested, and the “Beta-Blocker Pos./Neg.” value was “Neg. (scored as a positive if the signal strength was greater than that produced by 5.0 μg Atenolol per ml of urine)”. In the case of `COC(=O)[C@@H]1[C@H]2CC[C@@H](C[C@@H]1O)N2C.Cl` [Ecgonine Methyl Ester Hydrochloride], the “Beta-Blocker Pos./Neg.” value is reported as “Neg. (scored as a positive if the signal strength was greater than that produced by 5.0 μg Atenolol per ml of urine)”. For `CN[C@@H](C)[C@H](O)c1ccccc1` [Ephedrine (L-)], the “Beta-Blocker Pos./Neg.” value was “Neg. (scored as a positive if the signal strength was greater than that produced by 5.0 μg Atenolol per ml of urine)”. `CN[C@@H](C)[C@H](O)c1ccccc1.Cl` [Ephedrine Hydrochloride (1R,2S)-(−)] was tested, and the “Beta-Blocker Pos./Neg.” value was “Neg. (scored as a positive if the signal strength was greater than that produced by 5.0 μg Atenolol per ml of urine)”. In the case of `CC(C(=O)O)c1cccc(Oc2ccccc2)c1` (stereo not drawn) [Fenoprofen], the “Beta-Blocker Pos./Neg.” value is reported as “Neg. (scored as a positive if the signal strength was greater than that produced by 5.0 μg Atenolol per ml of urine)”. In the case of `Cc1ccc(C)c(OCCCC(C)(C)C(=O)O)c1` [Gemfibrozil], the “Beta-Blocker Pos./Neg.” value is reported as “Neg. (scored as a positive if the signal strength was greater than that produced by 5.0 μg Atenolol per ml of urine)”. With `O=C(O)c1cc(O)ccc1O` [Gentisic Acid] the “Beta-Blocker Pos./Neg.” value was “Neg. (scored as a positive if the signal strength was greater than that produced by 5.0 μg Atenolol per ml of urine)”. For `COc1ccc2c3c1O[C@H]1C(=O)CC[C@H]4[C@@H](C2)N(C)CC[C@]314` [Hydrocodone], the “Beta-Blocker Pos./Neg.” value was “Neg. (scored as a positive if the signal strength was greater than that produced by 5.0 μg Atenolol per ml of urine)”. In the case of `CC(C)Cc1ccc(C(C)C(=O)O)cc1` (stereo not drawn) [Ibuprofen], the “Beta-Blocker Pos./Neg.” value is reported as “Neg. (scored as a positive if the signal strength was greater than that produced by 5.0 μg Atenolol per ml of urine)”. With `CN(C)CCCN1c2ccccc2CCc2ccccc21` [Imipramine] the “Beta-Blocker Pos./Neg.” value was “Neg. (scored as a positive if the signal strength was greater than that produced by 5.0 μg Atenolol per ml of urine)”. With `CCN(CC)CC(=O)Nc1c(C)cccc1C` [Lidocaine] the “Beta-Blocker Pos./Neg.” value was “Neg. (scored as a positive if the signal strength was greater than that produced by 5.0 μg Atenolol per ml of urine)”. For `CN[C@@H](C)Cc1ccccc1` [Methamphetamine (D-)], the “Beta-Blocker Pos./Neg.” value was “Neg. (scored as a positive if the signal strength was greater than that produced by 5.0 μg Atenolol per ml of urine)”. In the case of `C=CCN1CC[C@]23c4c5ccc(O)c4O[C@H]2[C@@H](O)C=C[C@H]3[C@H]1C5` [Nalorphine], the “Beta-Blocker Pos./Neg.” value is reported as “Neg. (scored as a positive if the signal strength was greater than that produced by 5.0 μg Atenolol per ml of urine)”. With `COc1ccc2cc([C@H](C)C(=O)O)ccc2c1` [Naproxen] the “Beta-Blocker Pos./Neg.” value was “Neg. (scored as a positive if the signal strength was greater than that produced by 5.0 μg Atenolol per ml of urine)”. With `NC(=O)c1cccnc1` [Niacinamide] the “Beta-Blocker Pos./Neg.” value was “Neg. (scored as a positive if the signal strength was greater than that produced by 5.0 μg Atenolol per ml of urine)”. For `CCCC(C)C1(CC)C(=O)NC(=O)NC1=O` (stereo not drawn) [Pentobarbital], the “Beta-Blocker Pos./Neg.” value was “Neg. (scored as a positive if the signal strength was greater than that produced by 5.0 μg Atenolol per ml of urine)”. In the case of `c1ccc(C2(N3CCCCC3)CCCCC2)cc1` [Phencyclidine], the “Beta-Blocker Pos./Neg.” value is reported as “Neg. (scored as a positive if the signal strength was greater than that produced by 5.0 μg Atenolol per ml of urine)”. `NCCc1ccccc1` [Phenethylamine (beta-)] was tested, and the “Beta-Blocker Pos./Neg.” value was “Neg. (scored as a positive if the signal strength was greater than that produced by 5.0 μg Atenolol per ml of urine)”. With `CNC[C@H](O)c1cccc(O)c1` [Phenylephrine] the “Beta-Blocker Pos./Neg.” value was “Neg. (scored as a positive if the signal strength was greater than that produced by 5.0 μg Atenolol per ml of urine)”. In the case of `CC(N)C(O)c1ccccc1` (stereo not drawn) [Phenylpropanolamine], the “Beta-Blocker Pos./Neg.” value is reported as “Neg. (scored as a positive if the signal strength was greater than that produced by 5.0 μg Atenolol per ml of urine)”. With `CCN(CC)CCNC(=O)c1ccc(N)cc1` [Procainamide] the “Beta-Blocker Pos./Neg.” value was “Neg. (scored as a positive if the signal strength was greater than that produced by 5.0 μg Atenolol per ml of urine)”. For `CCN(CC)CCOC(=O)c1ccc(N)cc1` [Procaine], the “Beta-Blocker Pos./Neg.” value was “Neg. (scored as a positive if the signal strength was greater than that produced by 5.0 μg Atenolol per ml of urine)”. `CN[C@@H](C)[C@@H](O)c1ccccc1` [Pseudoephedrine] was tested, and the “Beta-Blocker Pos./Neg.” value was “Neg. (scored as a positive if the signal strength was greater than that produced by 5.0 μg Atenolol per ml of urine)”. `C=C[C@H]1C[N@@]2CC[C@H]1C[C@@H]2[C@@H](O)c1ccnc2ccc(OC)cc12` [Quinidine] was tested, and the “Beta-Blocker Pos./Neg.” value was “Neg. (scored as a positive if the signal strength was greater than that produced by 5.0 μg Atenolol per ml of urine)”. With `CN1C(=O)C(O)N=C(c2ccccc2)c2cc(Cl)ccc21` (stereo not drawn) [Temazepam] the “Beta-Blocker Pos./Neg.” value was “Neg. (scored as a positive if the signal strength was greater than that produced by 5.0 μg Atenolol per ml of urine)”. With `Cn1c(=O)c2[nH]cnc2n(C)c1=O` [Theophylline] the “Beta-Blocker Pos./Neg.” value was “Neg. (scored as a positive if the signal strength was greater than that produced by 5.0 μg Atenolol per ml of urine)”. In the case of `Cc1cc(CC(=O)O)n(C)c1C(=O)c1ccc(Cl)cc1` [Zomepirac], the “Beta-Blocker Pos./Neg.” value is reported as “Neg. (scored as a positive if the signal strength was greater than that produced by 5.0 μg Atenolol per ml of urine)”. With (−)-11-NOR-9-Carboxy-Delta9-THC the “Beta-Blocker Pos./Neg.” value was “Neg. (scored as a positive if the signal strength was greater than that produced by 5.0 μg Atenolol per ml of urine)”. For Ecgonine Hydrochloride, the “Beta-Blocker Pos./Neg.” value was “Neg. (scored as a positive if the signal strength was greater than that produced by 5.0 μg Atenolol per ml of urine)”. With PCP the “Beta-Blocker Pos./Neg.” value was “Neg. (scored as a positive if the signal strength was greater than that produced by 5.0 μg Atenolol per ml of urine)”. Penicillin was tested, and the “Beta-Blocker Pos./Neg.” value was “Neg. (scored as a positive if the signal strength was greater than that produced by 5.0 μg Atenolol per ml of urine)”.

— patent US7229782B1, “Antibodies specific to multiple beta blockers and methods for their use” (LabOne, Inc., priority 2004, dated 2007)
